Assay results as given in US6602862B1, “1-Amino-alkylcyclohexanes as trypanocidal agents” (Merz Pharma GmbH & Co., KGAA, priority 2000, dated 2003).
Read-outs that look alike come from different tables or passages of the source.

What was measured:
[1] = system: Bloodstream form T-brucei (strain 427); assay: Growth inhibition of cultured bloodstream form T. brucei, 3 days in presence of test compounds; details: for inhibition at 5 µg/mL: read-out: (Inhibition) (5 μg ml^−1); for (Inhibition) (5 μg ml^−1): preliminary screen at 5 μg ml^−1, 3 days
Procedure: After determination of cell densities at each drug concentration using a hemocytometer (Weber Scientific International Ltd), drug sensitivity was expressed as a percentage of growth of control cells.
In a preliminary screen, bloodstream form T.brucei were cultured for 3 days in growth medium at pH 7.4 in the presence of aminoalkylcyclohexane derivatives at a concentration of 5 μg ml^−1.
Initially each compound was screened to determine the inhibitory effect at 5 μg ml^−1 (data in brackets). […] Each experiment was performed in triplicate, except where indicated (++). […] Values are presented as ±SD from the mean. […] All other compounds were dissolved in H2O. Control cells were treated accordingly. ND stands for not done.

[2] = patients, advanced stage of the disease; cited from earlier work
[3] = system: bloodstream form of the African trypanosome, Trypanosoma brucei; details: reported recently; cited from earlier work
[4] = Trypanosoma brucei, 72 h, pH 7.4
[5] = concentration inhibiting growth by 50%, 3 days, 37°, pH 7.4, ±SD
[6] = concentration inhibiting growth by 90%, 3 days, 37°, pH 7.4, ±SD, ++ = six experiments
[7] = Trypanosoma brucei, 72 h, read-out: IC90

## CCCC1(C)CCCC(C)(N)C1 (stereo not drawn) [Compound 617, 1-Amino-1,3-dimethyl-3-propylcyclohexane]
[1]; [4]
  IC50: 1.54 ± 0.08 µg/mL
  IC90: 2.33 ± 0.24 µg/mL

## CC1(N)CCCCC1 [Compound 641, 1-Amino-1-methylcyclohexane]
[1]; Trypanosoma brucei, 72 h
  inhibition at 5 µg/mL: 86%

## CCCC1CCCC(C)(N)C1 (stereo not drawn) [Compound 628, 1-Methyl-3-cis-propylcyclohexylamine]
[1]; [5]
  IC50: 1.54 ± 0.02 µg/mL
[1]; [6]
  IC90: 1.95 ± 0.03 µg/mL

## CCC1CC(C)(C)CC(C)(N)C1 (stereo not drawn) [Compound 633, 1-Amino-1,3,3-trimethyl-5 (trans) ethylcyclohexane]
[1]; Trypanosoma brucei, 72 h
  inhibition at 5 µg/mL: 68%

## Nc1nc(N)nc(Nc2ccc([As]3SCC(CO)S3)cc2)n1 (stereo not drawn) [Melarsoprol]
[2]
  patient mortality due to arsenic encephalopathy: 5 to 10%

## CCC[C@H]1CC(C)(C)C[C@](C)(N)C1 (relative stereo) [Compound 635, trans-3-Propyl-1,5,5-trimethylcyclohexylamine]
[1]; [5]
  IC50: 2.23 ± 0.33 µg/mL
[1]; [6]
  IC90: 3.67 ± 0.06 µg/mL

## CCC[C@H]1CC(C)(C)C[C@@](C)(N)C1 (relative stereo) [Compound 634, cis-3-Propyl-1,5,5-trimethylcyclohexylamine]
[1]; [5]
  IC50: 0.57 ± 0.13 µg/mL
[1]; [6]
  IC90: 0.77 ± 0.15++ μg ml−1

## C[C@H]1CCC[C@](C)(N)C1 (relative stereo) [Compound 625, 1-Amino-1,3 (trans)-dimethylcyclohexane]
[1]
  (Inhibition) (5 μg ml^−1): (0%)

## CCNC1(C)CC(C)(C)CC(C)(C)C1 [Compound 639, N-Ethyl-1,3,3,5,5-pentamethylcyclohexylamine]
[1]; [4]
  IC50: 1.37 ± 0.19 µg/mL
  IC90: 1.96 ± 0.03 µg/mL
[1]; [7]
  IC90: < 2 µg/mL

## CCC[C@H]1CCC[C@](C)(N)C1 (relative stereo) [Compound 627, 1-Amino-1-methyl-3 (trans) propylcyclohexane]
[1]
  (Inhibition) (5 μg ml^−1): (17%)

## CCCC1(C)CC(C)CC(C)(N)C1 (stereo not drawn) [Compound 618, 1-Amino-1,3 (trans),5 (trans)-trimethyl-3(cis)-propylcyclohexane]
[1]; [5]
  IC50: 2.19 ± 0.69 µg/mL
[1]; [6]
  IC90: 3.59 ± 0.17 µg/mL

## CN(C)C1(C)CC(C)(C)CC(C)(C)C1 [Compound 642, N,N-dimethyl-1-amino-1,3,3,5,5-pentamethylcyclohexane]
[1]; Trypanosoma brucei, 72 h
  inhibition at 5 µg/mL: 21%

## CCCC1(CCC)CC(C)(C)CC(C)(N)C1 (stereo not drawn) [Compound 626, 1,3,3-Trimethyl-5,5-dipropylcyclohexylamine]
[1]; [4]
  IC50: 0.25 ± 0.01 µg/mL
  IC90: 0.29 ± 0.01 µg/mL

## CC[C@@H]1CC(C)(C)C[C@](C)(N)C1 (relative stereo) [Compound 632, 1-Amino-1,3,3-trimethyl-5 (cis) ethylcyclohexane]
[1]; [4]
  IC50: 2.92 ± 0.19 µg/mL
  IC90: 3.8 ± 0.07 µg/mL

## CC1(C)CC(C)(C)CC(C)(CCN)C1 [Compound 662, 2-(1,3,3,5,5-Pentamethylcyclohexyl-1) ethylamine]
[1]; [5]
  IC50: 0.24 ± 0.03 µg/mL
[1]; [6]
  IC90: 0.38 ± 0.08++ μg ml−1

## CCC1(C)CC(C)CC(C)(N)C1 (stereo not drawn) [Compound 622, cis-3-Ethyl-1, trans-3, trans-5-trimethylcyclohexamine]
[1]
  (Inhibition) (5 μg ml^−1): (40%)

## CCCC1(N)CC(C)(C)CC(C)(C)C1 [Compound 601, 1-Amino-1-propyl-3,3,5,5-tetramethylcyclohexane]
[1]; [4]
  IC50: 1.43 ± 0.08 µg/mL
  IC90: 1.87 ± 0.02 µg/mL
[1]; [7]
  IC90: < 2 µg/mL

## CCCC1(C)CC(C)(C)CC(C)(N)C1 (stereo not drawn) [Compound 614, 3-Propyl-1,3,5,5-Tetramethylcyclohexylamine]
[1]; [4]
  IC50: 0.55 ± 0.11 µg/mL
  IC90: 0.88 ± 0.09 µg/mL

## CC(N)C12CC3CC(CC(C3)C1)C2 (stereo not drawn) [rimantadine]
[3]
  sensitivity of bloodstream form T. brucei: sensitive

## CC[C@H]1CCC[C@](C)(N)C1 (relative stereo) [Compound 629, 1-Amino-1-methyl-3 (trans) ethylcyclohexane]
[1]; Trypanosoma brucei, 72 h
  inhibition at 5 µg/mL: 2%

## CC1(C)CC(CCN)CC(C)(C)C1 [Compound 644, 2-(3,3,5,5-Tetramethylcyclohexyl)ethylamine]
[1]; [4]
  IC50: 0.23 ± 0.02 µg/mL
  IC90: 0.31 ± 0.03 µg/mL

## CCC1(C)CC(C)(C)CC(C)(N)C1 (stereo not drawn) [Compound 615, 1-Amino-1,3,5,5-tetramethyl-3-ethylcyclohexane]
[1]; [4]
  IC50: 1.45 ± 0.07 µg/mL
  IC90: 1.93 ± 0.02 µg/mL

## CC(C)(N)CC1CC(C)(C)CC(C)(C)C1 [Compound 645, 2-Methyl-1-(3,3,5,5-tetramethylcyclohexyl)propyl-2-amine]
[1]; [5]
  IC50: 0.22 ± 0.02 µg/mL
[1]; [6]
  IC90: 0.29 ± 0.01 µg/mL

## CCC1(C)CCCC(C)(N)C1 (stereo not drawn) [Compound 620, 1-Amino-1,3-dimethyl-3-ethylcyclohexane]
[1]; Trypanosoma brucei, 72 h
  inhibition at 5 µg/mL: 25%

## C[C@@H]1CC(C)(C)C[C@@](C)(N)C1 (relative stereo) [Compound 607, 1-Amino-1,3,3,5(trans)-tetramethylcyclohexane]
[1]
  (Inhibition) (5 μg ml^−1): (17%)

## CC1(C)CC(CN)CC(C)(C)C1 [Compound 580, 3,3,5,5-Tetramethylcyclohexylmethylamine]
[1]; [4]
  IC50: 1.44 ± 0.09 µg/mL
  IC90: 1.89 ± 0.02 µg/mL
[1]; [7]
  IC90: < 2 µg/mL

## CC1(C)CCCC(C)(N)C1 (stereo not drawn) [Compound 621, 1-Amino-1,3,3-trimethylcyclohexane]
[1]; Trypanosoma brucei, 72 h
  inhibition at 5 µg/mL: 40%
